Test results reported in ChEMBL document CHEMBL4507269, “Data for DCP probe BAY-386” (2021).

Legend:
[1] = molecular target: T1, Muscarinic acetylcholine receptor M1 (Homo sapiens) (UniProt P11229); assay: M1 (h) Eurofins-Cerep Cellular and Nuclear Receptor Functional Assays; conditions: Compound concentration 10.0 uM
T1 sequence (whole entry): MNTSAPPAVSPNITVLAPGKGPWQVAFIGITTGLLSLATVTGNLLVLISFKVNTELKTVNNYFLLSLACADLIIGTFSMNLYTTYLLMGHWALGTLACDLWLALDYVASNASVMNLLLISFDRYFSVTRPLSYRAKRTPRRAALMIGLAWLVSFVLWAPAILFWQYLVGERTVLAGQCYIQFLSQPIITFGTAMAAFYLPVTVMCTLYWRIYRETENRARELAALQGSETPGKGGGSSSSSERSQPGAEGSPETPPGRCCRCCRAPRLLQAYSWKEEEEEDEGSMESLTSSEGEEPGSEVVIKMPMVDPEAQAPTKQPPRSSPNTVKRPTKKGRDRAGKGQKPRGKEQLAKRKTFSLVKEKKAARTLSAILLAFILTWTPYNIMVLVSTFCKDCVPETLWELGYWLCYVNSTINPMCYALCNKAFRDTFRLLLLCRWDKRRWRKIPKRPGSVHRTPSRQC

[2] = molecular target: Tyrosine-protein kinase ABL2 (Homo sapiens) (UniProt P42684); conditions: Compound concentration 1000.0 nM
[3] = molecular target: Mitogen-activated protein kinase kinase kinase 5 (Homo sapiens) (UniProt Q99683); conditions: Compound concentration 1000.0 nM
[4] = molecular target: BMP-2-inducible protein kinase (Homo sapiens) (UniProt Q9NSY1); conditions: Compound concentration 1000.0 nM
[5] = molecular target: Serine/threonine-protein kinase BRSK1 (Homo sapiens) (UniProt Q8TDC3); conditions: Compound concentration 1000.0 nM
[6] = molecular target: Tyrosine-protein kinase BTK (Homo sapiens) (UniProt Q06187); conditions: Compound concentration 1000.0 nM
[7] = molecular target: Mitotic checkpoint serine/threonine-protein kinase BUB1 (Homo sapiens) (UniProt O43683); conditions: Compound concentration 1000.0 nM
Chain of Mitotic checkpoint serine/threonine-protein kinase BUB1 (Homo sapiens) (O43683 whole entry, looked up): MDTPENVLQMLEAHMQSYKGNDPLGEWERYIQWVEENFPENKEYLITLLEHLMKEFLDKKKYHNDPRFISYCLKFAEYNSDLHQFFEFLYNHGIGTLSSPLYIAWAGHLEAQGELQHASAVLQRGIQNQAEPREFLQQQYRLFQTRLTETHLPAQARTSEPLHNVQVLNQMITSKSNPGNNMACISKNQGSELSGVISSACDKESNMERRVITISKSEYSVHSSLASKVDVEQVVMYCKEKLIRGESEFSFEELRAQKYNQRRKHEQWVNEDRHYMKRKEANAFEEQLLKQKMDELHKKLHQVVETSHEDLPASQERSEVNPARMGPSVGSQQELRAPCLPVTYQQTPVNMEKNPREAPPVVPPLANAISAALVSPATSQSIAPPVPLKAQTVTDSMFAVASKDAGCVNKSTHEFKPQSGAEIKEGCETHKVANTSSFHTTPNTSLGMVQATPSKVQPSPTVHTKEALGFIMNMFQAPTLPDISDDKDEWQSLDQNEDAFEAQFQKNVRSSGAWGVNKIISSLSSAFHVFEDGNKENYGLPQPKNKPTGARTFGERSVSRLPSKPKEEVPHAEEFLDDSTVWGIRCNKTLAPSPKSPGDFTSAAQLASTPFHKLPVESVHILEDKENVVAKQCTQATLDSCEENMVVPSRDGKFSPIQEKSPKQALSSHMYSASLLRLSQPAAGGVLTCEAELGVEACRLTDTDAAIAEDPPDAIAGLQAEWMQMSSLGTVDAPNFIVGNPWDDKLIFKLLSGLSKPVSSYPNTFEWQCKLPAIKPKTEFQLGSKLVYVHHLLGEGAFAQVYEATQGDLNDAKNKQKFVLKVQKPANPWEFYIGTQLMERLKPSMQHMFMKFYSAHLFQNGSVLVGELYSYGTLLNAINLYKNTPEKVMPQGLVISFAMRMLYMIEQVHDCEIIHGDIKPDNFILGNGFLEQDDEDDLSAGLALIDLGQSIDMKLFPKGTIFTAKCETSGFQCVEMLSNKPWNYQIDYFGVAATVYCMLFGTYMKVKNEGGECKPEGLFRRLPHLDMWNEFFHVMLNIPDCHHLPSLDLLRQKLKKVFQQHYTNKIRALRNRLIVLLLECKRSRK

[8] = molecular target: Calcium/calmodulin-dependent protein kinase type 1 (Homo sapiens) (UniProt Q14012); conditions: Compound concentration 1000.0 nM
[9] = molecular target: Calcium/calmodulin-dependent protein kinase type 1D (Homo sapiens) (UniProt Q8IU85); conditions: Compound concentration 1000.0 nM
[10] = molecular target: Cyclin-dependent kinase 11B (Homo sapiens) (UniProt P21127); conditions: Compound concentration 1000.0 nM
Chain of Cyclin-dependent kinase 11B (Homo sapiens) (P21127 whole entry): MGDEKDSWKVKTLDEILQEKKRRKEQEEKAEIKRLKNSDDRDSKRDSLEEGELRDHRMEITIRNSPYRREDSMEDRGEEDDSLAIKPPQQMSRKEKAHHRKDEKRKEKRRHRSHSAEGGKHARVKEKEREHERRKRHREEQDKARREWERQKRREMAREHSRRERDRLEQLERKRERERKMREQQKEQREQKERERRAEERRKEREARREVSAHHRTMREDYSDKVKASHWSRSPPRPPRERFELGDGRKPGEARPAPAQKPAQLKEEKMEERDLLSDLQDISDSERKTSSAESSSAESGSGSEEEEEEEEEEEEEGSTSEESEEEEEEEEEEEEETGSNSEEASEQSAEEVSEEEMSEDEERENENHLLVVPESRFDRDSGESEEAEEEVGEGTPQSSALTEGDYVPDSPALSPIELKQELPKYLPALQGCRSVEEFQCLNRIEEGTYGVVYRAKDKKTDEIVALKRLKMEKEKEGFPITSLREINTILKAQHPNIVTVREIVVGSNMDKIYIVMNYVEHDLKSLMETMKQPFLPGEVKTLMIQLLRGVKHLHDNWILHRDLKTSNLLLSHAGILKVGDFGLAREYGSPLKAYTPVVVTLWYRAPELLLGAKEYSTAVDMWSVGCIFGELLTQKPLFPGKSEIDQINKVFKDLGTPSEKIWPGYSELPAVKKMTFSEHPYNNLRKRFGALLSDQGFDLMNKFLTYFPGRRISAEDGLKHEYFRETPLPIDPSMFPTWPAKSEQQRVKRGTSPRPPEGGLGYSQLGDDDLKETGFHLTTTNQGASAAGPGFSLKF

[11] = molecular target: Cyclin-dependent kinase 9 (Homo sapiens) (UniProt P50750); conditions: Compound concentration 1000.0 nM
[12] = molecular target: Casein kinase I isoform gamma-2 (Homo sapiens) (UniProt P78368); conditions: Compound concentration 1000.0 nM
Chain of Casein kinase I isoform gamma-2 (Homo sapiens) (P78368 whole entry, looked up, canonical isoform): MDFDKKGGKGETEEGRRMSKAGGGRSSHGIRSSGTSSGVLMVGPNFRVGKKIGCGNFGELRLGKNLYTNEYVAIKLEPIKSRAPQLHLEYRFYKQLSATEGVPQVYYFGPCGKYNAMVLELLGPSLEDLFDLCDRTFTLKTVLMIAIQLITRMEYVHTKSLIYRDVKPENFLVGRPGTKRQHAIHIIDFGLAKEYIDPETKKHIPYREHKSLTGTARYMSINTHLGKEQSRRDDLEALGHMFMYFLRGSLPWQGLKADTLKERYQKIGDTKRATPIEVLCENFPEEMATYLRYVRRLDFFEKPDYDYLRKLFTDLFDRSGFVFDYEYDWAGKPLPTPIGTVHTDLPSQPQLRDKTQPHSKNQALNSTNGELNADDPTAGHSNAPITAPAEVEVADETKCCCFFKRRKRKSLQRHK

[13] = molecular target: Serine/threonine-protein kinase 17A (Homo sapiens) (UniProt Q9UEE5); conditions: Compound concentration 1000.0 nM
Chain of Serine/threonine-protein kinase 17A (Homo sapiens) (Q9UEE5 whole entry): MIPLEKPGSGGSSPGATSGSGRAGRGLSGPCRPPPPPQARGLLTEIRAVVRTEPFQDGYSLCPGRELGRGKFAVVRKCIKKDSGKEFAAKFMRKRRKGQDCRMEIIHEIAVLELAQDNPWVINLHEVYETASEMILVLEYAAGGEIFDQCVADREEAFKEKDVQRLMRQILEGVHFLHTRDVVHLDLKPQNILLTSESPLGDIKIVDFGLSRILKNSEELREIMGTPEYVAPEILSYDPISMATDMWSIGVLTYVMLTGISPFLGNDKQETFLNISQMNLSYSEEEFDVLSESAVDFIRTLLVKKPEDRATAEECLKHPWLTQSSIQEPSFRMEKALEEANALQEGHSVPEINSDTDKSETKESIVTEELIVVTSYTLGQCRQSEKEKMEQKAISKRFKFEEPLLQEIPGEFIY

[14] = molecular target: Ephrin type-A receptor 3 (Homo sapiens) (UniProt P29320); conditions: Compound concentration 1000.0 nM
[15] = molecular target: Fibroblast growth factor receptor 4 (Homo sapiens) (UniProt P22455); conditions: Compound concentration 1000.0 nM
[16] = molecular target: Beta-adrenergic receptor kinase 1 (Homo sapiens) (UniProt P25098); conditions: Compound concentration 1000.0 nM
[17] = molecular target: G protein-coupled receptor kinase 3 (Homo sapiens) (UniProt P35626); conditions: Compound concentration 1000.0 nM
[18] = molecular target: Tyrosine-protein kinase HCK (Homo sapiens) (UniProt P08631); conditions: Compound concentration 1000.0 nM
[19] = molecular target: Insulin receptor (Homo sapiens) (UniProt P06213); conditions: Compound concentration 1000.0 nM
[20] = molecular target: Serine/threonine-protein kinase MARK2 (Homo sapiens) (UniProt Q7KZI7); conditions: Compound concentration 1000.0 nM
Chain of Serine/threonine-protein kinase MARK2 (Homo sapiens) (Q7KZI7 whole entry): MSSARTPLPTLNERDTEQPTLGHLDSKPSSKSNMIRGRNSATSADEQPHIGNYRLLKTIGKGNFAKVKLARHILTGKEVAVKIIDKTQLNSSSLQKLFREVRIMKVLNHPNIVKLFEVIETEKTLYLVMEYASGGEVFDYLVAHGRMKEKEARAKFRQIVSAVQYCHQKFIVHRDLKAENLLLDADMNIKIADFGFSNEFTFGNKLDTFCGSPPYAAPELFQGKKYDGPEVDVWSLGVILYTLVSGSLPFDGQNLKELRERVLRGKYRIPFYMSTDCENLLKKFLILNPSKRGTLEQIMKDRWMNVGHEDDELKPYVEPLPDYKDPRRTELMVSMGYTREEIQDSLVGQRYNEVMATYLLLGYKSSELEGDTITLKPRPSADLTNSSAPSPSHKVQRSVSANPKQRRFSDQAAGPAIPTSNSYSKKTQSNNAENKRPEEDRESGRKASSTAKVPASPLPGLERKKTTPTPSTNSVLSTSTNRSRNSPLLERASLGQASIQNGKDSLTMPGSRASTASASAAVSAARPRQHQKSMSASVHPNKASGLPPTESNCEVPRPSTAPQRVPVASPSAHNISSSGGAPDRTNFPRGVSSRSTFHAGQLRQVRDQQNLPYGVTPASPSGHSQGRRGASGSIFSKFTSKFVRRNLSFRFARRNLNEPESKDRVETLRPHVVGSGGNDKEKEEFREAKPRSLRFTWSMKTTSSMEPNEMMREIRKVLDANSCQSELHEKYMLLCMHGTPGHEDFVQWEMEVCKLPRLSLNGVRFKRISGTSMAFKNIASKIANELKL

[21] = molecular target: Hepatocyte growth factor receptor (Homo sapiens) (UniProt P08581); conditions: Compound concentration 1000.0 nM
[22] = molecular target: Mitogen-activated protein kinase kinase kinase 14 (Homo sapiens) (UniProt Q99558); conditions: Compound concentration 1000.0 nM
[23] = molecular target: Mitogen-activated protein kinase 11 (Homo sapiens) (UniProt Q15759); conditions: Compound concentration 1000.0 nM
Chain of Mitogen-activated protein kinase 11 (Homo sapiens) (Q15759 whole entry): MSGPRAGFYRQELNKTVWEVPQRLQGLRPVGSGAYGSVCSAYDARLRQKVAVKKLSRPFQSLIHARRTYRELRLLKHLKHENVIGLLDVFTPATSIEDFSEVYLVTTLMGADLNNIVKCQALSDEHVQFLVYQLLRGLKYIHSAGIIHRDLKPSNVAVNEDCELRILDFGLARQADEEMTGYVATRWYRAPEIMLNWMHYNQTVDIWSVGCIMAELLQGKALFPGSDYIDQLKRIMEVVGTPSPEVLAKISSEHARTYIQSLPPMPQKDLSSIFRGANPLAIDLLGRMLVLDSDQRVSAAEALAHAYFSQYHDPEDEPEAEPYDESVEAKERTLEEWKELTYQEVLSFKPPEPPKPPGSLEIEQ

[24] = molecular target: Serine/threonine-protein kinase PLK4 (Homo sapiens) (UniProt O00444); conditions: Compound concentration 1000.0 nM
Chain of Serine/threonine-protein kinase PLK4 (Homo sapiens) (O00444 whole entry): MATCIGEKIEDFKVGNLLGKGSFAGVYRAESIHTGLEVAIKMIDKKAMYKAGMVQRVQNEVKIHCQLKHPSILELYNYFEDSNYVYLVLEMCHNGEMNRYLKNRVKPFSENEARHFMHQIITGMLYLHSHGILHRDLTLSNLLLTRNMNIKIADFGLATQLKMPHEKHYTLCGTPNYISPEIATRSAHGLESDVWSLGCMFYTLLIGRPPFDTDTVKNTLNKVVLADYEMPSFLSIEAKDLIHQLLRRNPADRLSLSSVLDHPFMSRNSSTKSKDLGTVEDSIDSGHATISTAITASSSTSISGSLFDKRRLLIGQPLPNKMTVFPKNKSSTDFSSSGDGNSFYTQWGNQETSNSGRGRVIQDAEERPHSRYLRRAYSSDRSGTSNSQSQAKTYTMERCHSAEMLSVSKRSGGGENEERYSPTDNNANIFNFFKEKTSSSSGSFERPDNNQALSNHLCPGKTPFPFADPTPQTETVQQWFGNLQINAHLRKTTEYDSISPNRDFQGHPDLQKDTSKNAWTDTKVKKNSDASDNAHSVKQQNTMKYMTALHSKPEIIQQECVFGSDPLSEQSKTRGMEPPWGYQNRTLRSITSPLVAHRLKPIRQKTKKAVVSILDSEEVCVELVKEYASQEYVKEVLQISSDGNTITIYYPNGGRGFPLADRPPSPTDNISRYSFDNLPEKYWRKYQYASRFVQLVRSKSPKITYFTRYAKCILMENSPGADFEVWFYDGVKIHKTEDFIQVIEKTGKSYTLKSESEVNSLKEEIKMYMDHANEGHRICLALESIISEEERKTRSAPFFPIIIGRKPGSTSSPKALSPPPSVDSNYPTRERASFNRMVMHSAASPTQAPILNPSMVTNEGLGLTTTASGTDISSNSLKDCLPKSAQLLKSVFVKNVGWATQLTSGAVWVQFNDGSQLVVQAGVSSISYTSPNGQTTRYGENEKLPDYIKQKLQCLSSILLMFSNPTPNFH

[25] = molecular target: Interferon-induced, double-stranded RNA-activated protein kinase (Homo sapiens) (UniProt P19525); conditions: Compound concentration 1000.0 nM
[26] = molecular target: Serine/threonine-protein kinase Sgk2 (Homo sapiens) (UniProt Q9HBY8); conditions: Compound concentration 1000.0 nM
[27] = molecular target: Serine/threonine-protein kinase 36 (Homo sapiens) (UniProt Q9NRP7); conditions: Compound concentration 1000.0 nM
[28] = molecular target: Serine/threonine-protein kinase TAO1 (Homo sapiens) (UniProt Q7L7X3); conditions: Compound concentration 1000.0 nM
[29] = molecular target: Angiopoietin-1 receptor (Homo sapiens) (UniProt Q02763); conditions: Compound concentration 1000.0 nM
[30] = molecular target: Serine/threonine-protein kinase 25 (Homo sapiens) (UniProt O00506); conditions: Compound concentration 1000.0 nM
[31] = molecular target: 5-hydroxytryptamine receptor 6 (Homo sapiens) (UniProt P50406); conditions: Compound concentration 10.0 uM
[32] = molecular target: Histamine H4 receptor (Homo sapiens) (UniProt Q9H3N8); conditions: Compound concentration 10.0 uM
[33] = molecular target: T2, Alpha-2A adrenergic receptor (Homo sapiens) (UniProt P08913); conditions: Compound concentration 10.0 uM
T2 sequence (whole entry): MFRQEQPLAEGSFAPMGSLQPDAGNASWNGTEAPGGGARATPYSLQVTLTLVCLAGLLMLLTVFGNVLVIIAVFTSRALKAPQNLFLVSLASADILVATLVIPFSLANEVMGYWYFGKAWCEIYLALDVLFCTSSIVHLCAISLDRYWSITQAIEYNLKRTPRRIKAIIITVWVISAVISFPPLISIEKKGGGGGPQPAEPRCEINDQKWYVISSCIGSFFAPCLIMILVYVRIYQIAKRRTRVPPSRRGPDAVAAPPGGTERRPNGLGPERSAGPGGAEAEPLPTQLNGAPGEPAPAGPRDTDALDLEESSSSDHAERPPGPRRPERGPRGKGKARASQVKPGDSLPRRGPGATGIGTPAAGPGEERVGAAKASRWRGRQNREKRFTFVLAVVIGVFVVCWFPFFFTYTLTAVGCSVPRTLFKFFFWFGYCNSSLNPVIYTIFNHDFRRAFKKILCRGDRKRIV

| SMILES | % Inhibition of Control Agonist Response (Mean n=2) [1] | % of Control Agonist Response (Mean n=2) [1] | residual activity [2] | residual activity [3] | residual activity [4] | residual activity [5] | residual activity [6] | residual activity [7] | residual activity [8] | residual activity [9] | residual activity [10] | residual activity [11] | residual activity [12] | residual activity [13] | residual activity [14] | residual activity [15] | residual activity [16] | residual activity [17] | residual activity [18] | residual activity [19] | other results |
| --- | --- | --- | --- | --- | --- | --- | --- | --- | --- | --- | --- | --- | --- | --- | --- | --- | --- | --- | --- | --- | --- |
| Cc1noc([C@H]2C[C@@H](c3ccc(C(F)(F)F)cc3)CN(C(=O)N3CCS(=O)(=O)C3)C2)n1 [BAY-448] | 10.2% | 1.2% | 100% | 100% | 100% | 100% | 96% | 100% | 100% | 100% | 100% | 100% | 100% | 100% | 100% | 100% | 83% | 100% | 100% | 85% | residual activity [20]: 100%; residual activity [21]: 100%; residual activity [22]: 91%; residual activity [23]: 100%; residual activity [24]: 88%; residual activity [25]: 100%; residual activity [26]: 100%; residual activity [27]: 100%; residual activity [28]: 100%; residual activity [29]: 100%; residual activity [30]: 89%; inhibition [31]: 27.7%; inhibition [32]: -2.74%; inhibition [33]: 6.96% |
| O=C(N1CCS(=O)(=O)CC1)N1C[C@H](c2ccc(OC(F)(F)F)cc2)C[C@H](c2nc(C3CC3)no2)C1 [BAY-386] | 57% | 12.8% | 100% | 100% | 97% | 100% | 100% | 100% | 100% | 91% | 100% | 100% | 89% | 100% | 100% | 100% | 66% | 100% | 100% | 94% | residual activity [20]: 100%; residual activity [21]: 100%; residual activity [22]: 87%; residual activity [23]: 100%; residual activity [24]: 100%; residual activity [25]: 100%; residual activity [26]: 76%; residual activity [27]: 100%; residual activity [28]: 100%; residual activity [29]: 100%; residual activity [30]: 93%; inhibition [31]: 2.78%; inhibition [32]: -4.72%; inhibition [33]: -0.34% |
